From US12715896B2 (priority 2020, dated 2026)
pIC50: −log10 of the molar value. Non-standard residues stand in square brackets, D forms with d. Residues, ends and D or L forms follow the SMILES beside them. *: point of attachment. Met(O2) = CS(=O)(=O)CC[C@H](N)C(=O)O; Cha = N[C@@H](CC1CCCCC1)C(=O)O; Tle = CC(C)(C)[C@H](N)C(=O)O; Nva = CCC[C@H](N)C(=O)O; Cbz = O=C(OCc1ccccc1)*; Boc = CC(C)(C)OC(=O)*

Legend:
SARS-CoV-2 M^pro [1] = molecular target: T1, SARS-CoV-2 M^pro (Severe acute respiratory syndrome coronavirus 2, UniProt P0DTD1); test: FRET-based enzymatic assay for SARS-CoV-2 main protease; type: biochemical; details: for inhibition at 20 µM: read-out: inhibition against M^pro in primary screening
SARS-CoV-2 M^pro [2] = molecular target: T1, SARS-CoV-2 M^pro; type: binding; details: 30 μM compound; for 2019-nCoV 3CL TSA Tm: melting temperature with compound, DMSO 55.74; for 2019-nCoV 3CL TSA ΔTm: shift vs DMSO

COc1ccc2c(O[C@@H]3CC4C(=O)N[C@]5(C(=O)NS(=O)(=O)C6CC6)C[C@@H]5/C=C\CCCCN(C)C(=O)C4C3)cc(-c3nc(C(C)C)cs3)nc2c1C (stereo partly drawn) [Simeprevir (24), Simeprevir]
inhibition at 20 µM (SARS-CoV-2 M^pro [1]): > 60%

CSCC[C@H](NC(=O)[C@H](CC(C)C)NC(=O)[C@H](CC(C)C)NC(C)=O)C(=O)C(=O)NC(C)C [Jun9-11-4]
pIC50 (SARS-CoV-2 M^pro [1]): 5.22

CCC[C@H](NC(=O)[C@H](CC(C)C)NC(=O)[C@H](Cc1ccccc1)NC(=O)OCc1ccccc1)C(=O)C(=O)NC1CC1 [Jun8-29-4]
pIC50 (SARS-CoV-2 M^pro [1]): 6.32

CC(C)C[C@H](NC(=O)CNC(=O)OCc1ccccc1)C(=O)N[C@@H](CCS(C)(=O)=O)C(=O)C(=O)NC1CC1 [Jun9-56-2]
pIC50 (SARS-CoV-2 M^pro [1]): 6.89

CSCC[C@@H](C=O)NC(=O)[C@H](CC(C)C)NC(=O)[C@H](CC(C)C)NC(C)=O [Calpain inhibitor II (61), Calpain inhibitor II] (Ac-Leu-Leu-Met-aldehyde)
2019-nCoV 3CL TSA Tm (SARS-CoV-2 M^pro [2]): 62.93 ± 0.14 °C | 2019-nCoV 3CL TSA ΔTm (SARS-CoV-2 M^pro [2]): 6.65 °C

CCC[C@H](NC(=O)[C@H](CC(C)C)NC(=O)OCc1ccccc1)C(=O)C(=O)NC1CC1 [Jun8-18-2]
pIC50 (SARS-CoV-2 M^pro [1]): < 4.70

CSCC[C@@H](C=O)NC(=O)[C@H](CC(C)C)NC(=O)[C@H](CC(C)C)NC(=O)OCc1ccccc1 [Jun8-61-4] (Cbz-Leu-Leu-Met-aldehyde)
pIC50 (SARS-CoV-2 M^pro [1]): 6.96

CSCC[C@H](NC(=O)[C@H](CC(C)C)NC(=O)[C@H](CC(C)C)NC(=O)OCc1ccccc1)C(=O)C(=O)NC1CC1 [Jun8-43-3]
pIC50 (SARS-CoV-2 M^pro [1]): 5.55

CCC[C@H](NC(=O)[C@H](CC(C)C)NC(=O)[C@@H](NC(=O)OCc1ccccc1)C(C)C)C(=O)C(=O)NC1CC1 [Jun8-29-2]
pIC50 (SARS-CoV-2 M^pro [1]): 6.32

CSCC[C@H](NC(=O)[C@H](CC(C)C)NC(=O)CNC(=O)OCc1ccccc1)C(=O)C(=O)NC1CC1 [Jun9-47-4]
pIC50 (SARS-CoV-2 M^pro [1]): 5.92

CSCC[C@H](NC(=O)[C@H](CC(C)C)NC(=O)[C@H](CC(C)C)NC(C)=O)C(=O)C(=O)NC1CC1 [Jun9-11-3]
pIC50 (SARS-CoV-2 M^pro [1]): 6.27

CSCC[C@H](NC(=O)[C@H](CC1CCCCC1)NC(=O)[C@@H](NC(C)=O)C(C)(C)C)C(=O)C(=O)NC1CC1 [Jun9-66-3]
pIC50 (SARS-CoV-2 M^pro [1]): 5.82

CCCC[C@H](NC(=O)[C@@H]1[C@@H]2[C@H](CN1C(=O)[C@@H](NC(=O)NC1(CS(=O)(=O)C(C)(C)C)CCCCC1)C(C)(C)C)C2(C)C)C(=O)C(=O)NC1CC1 [Narlaprevir (29), Narlaprevir]
inhibition at 20 µM (SARS-CoV-2 M^pro [1]): > 60% | 2019-nCoV 3CL TSA Tm (SARS-CoV-2 M^pro [2]): 60.92 ± 0.14/5.18 °C

CCC[C@H](NC(C)=O)C(=O)N[C@@H](CC(C)C)C(=O)N[C@@H](CCSC)C(=O)C(=O)NC1CC1 [Jun9-24-5]
pIC50 (SARS-CoV-2 M^pro [1]): 6.19

CSCC[C@H](NC(=O)[C@H](CC(C)C)NC(=O)[C@H](CC(C)C)NC(C)=O)C(=O)C(=O)NCc1ccccc1 [Jun9-11-5]
pIC50 (SARS-CoV-2 M^pro [1]): 5.75

CC(=O)N[C@@H](CC(C)C)C(=O)N[C@@H](CC(C)C)C(=O)N[C@H](C=O)CCS(C)(=O)=O [Jun9-58-1] (Ac-Leu-Leu-[Met(O2)]-aldehyde)
pIC50 (SARS-CoV-2 M^pro [1]): 6.31

CSCC[C@@H](C=O)NC(=O)[C@H](CC(C)C)NC(=O)[C@H](CC1CCCCC1)NC(C)=O [Jun9-66-2] (Ac-[Cha]-Leu-Met-aldehyde)
pIC50 (SARS-CoV-2 M^pro [1]): 6.54

CSCC[C@H](NC(=O)[C@H](CC(C)C)NC(=O)[C@H](Cc1ccccc1)NC(C)=O)C(=O)C(=O)NC1CC1 [Jun9-24-3]
pIC50 (SARS-CoV-2 M^pro [1]): 6.34

CCC[C@H](NC(=O)[C@H](CC(C)C)NC(=O)[C@H](CC(C)C)NC(=O)OCc1ccccc1)C(=O)C(=O)NC1CC1 [Jun8-18-4]
pIC50 (SARS-CoV-2 M^pro [1]): 6.47

CC(C)C[C@@H](C=O)NC(=O)[C@@H](NS(=O)(=O)c1ccc(F)cc1)C(C)C [Calpain inhibitor VI (58), Calpain inhibitor VI]
2019-nCoV 3CL TSA Tm (SARS-CoV-2 M^pro [2]): 55.46 ± 0.14 °C | 2019-nCoV 3CL TSA ΔTm (SARS-CoV-2 M^pro [2]): −0.28 °C

CCC[C@@H](C=O)NC(=O)[C@H](CC(C)C)NC(=O)[C@H](CC(C)C)NC(C)=O [Jun9-48-3] (Ac-Leu-Leu-[Nva]-aldehyde)
pIC50 (SARS-CoV-2 M^pro [1]): 4.41

CSCC[C@@H](C=O)NC(=O)[C@H](CC(C)C)NC(C)=O [Jun8-102-1] (Ac-Leu-Met-aldehyde)
pIC50 (SARS-CoV-2 M^pro [1]): 5.32

CSCC[C@@H](C=O)NC(=O)[C@H](CC1CCCCC1)NC(=O)[C@@H](NC(C)=O)C(C)(C)C [Jun9-66-1] (Ac-[Tle]-[Cha]-Met-aldehyde)
pIC50 (SARS-CoV-2 M^pro [1]): 6.49

CCC[C@H](NC(=O)[C@H](CC(C)C)NC(=O)[C@H](CC(C)C)NC(C)=O)C(=O)C(=O)NC1CC1 [Jun9-49-1]
pIC50 (SARS-CoV-2 M^pro [1]): 5.23

CSCC[C@@H](C=O)NC(=O)[C@H](CC(C)C)NC(=O)OCc1ccccc1 [Jun8-102-2] (Cbz-Leu-Met-aldehyde)
pIC50 (SARS-CoV-2 M^pro [1]): 6.04

CSCC[C@@H](C=O)NC(=O)[C@H](CC(C)C)NC(=O)OC(C)(C)C [Jun9-2-3] (Boc-Leu-Met-aldehyde)
pIC50 (SARS-CoV-2 M^pro [1]): < 4.70

CCC[C@@H](C=O)NC(=O)[C@H](CC(C)C)NC(=O)[C@H](CC(C)C)NC(=O)OCc1ccccc1 [MG-115 (60), MG-115] (Cbz-Leu-Leu-[Nva]-aldehyde)
2019-nCoV 3CL TSA Tm (SARS-CoV-2 M^pro [2]): 60.51 ± 0.28 °C | 2019-nCoV 3CL TSA ΔTm (SARS-CoV-2 M^pro [2]): 4.77 °C

CC(C)[C@H](NC(=O)OCc1ccccc1)C(=O)N[C@H](C=O)Cc1ccccc1 [calpain inhibitor III (MDL28170) (57), calpain inhibitor III] (Cbz-Val-Phe-aldehyde)
pIC50 (SARS-CoV-2 M^pro [1]): < 4.70 | 2019-nCoV 3CL TSA Tm (SARS-CoV-2 M^pro [2]): 55.36 ± 0.14 °C | 2019-nCoV 3CL TSA ΔTm (SARS-CoV-2 M^pro [2]): −0.38 °C

CC(=O)N[C@@H](CC1CCCCC1)C(=O)N[C@@H](CC(C)C)C(=O)N[C@@H](CCS(C)(=O)=O)C(=O)C(=O)NC1CC1 [Jun9-82-2]
pIC50 (SARS-CoV-2 M^pro [1]): 7.00

CC(C)(C)NC(=O)N[C@H](C(=O)N1C[C@H]2[C@@H]([C@H]1C(=O)NC(CC1CCC1)C(=O)C(N)=O)C2(C)C)C(C)(C)C (stereo partly drawn) [Boceprevir (28), Boceprevir]
inhibition at 20 µM (SARS-CoV-2 M^pro [1]): > 60% | 2019-nCoV 3CL TSA Tm (SARS-CoV-2 M^pro [2]): 62.41 ± 0.21/6.67 °C

CCC[C@H](NC(=O)[C@H](CC(C)C)NC(=O)CNC(=O)OCc1ccccc1)C(=O)C(=O)NC1CC1 [Jun9-52-4]
pIC50 (SARS-CoV-2 M^pro [1]): 4.75

CCC[C@@H](C=O)NC(=O)[C@H](CC(C)C)NC(=O)CNC(=O)OCc1ccccc1 [Jun9-52-3] (Cbz-Gly-Leu-[Nva]-aldehyde)
pIC50 (SARS-CoV-2 M^pro [1]): < 4.70

CC(=O)N[C@@H](CC(C)C)C(=O)N[C@@H](CC(C)C)C(=O)N[C@@H](CCS(C)(=O)=O)C(=O)C(=O)NC1CC1 [Jun9-65-1]
pIC50 (SARS-CoV-2 M^pro [1]): 6.74

CSCC[C@@H](C=O)NC(=O)[C@H](CC(C)C)NC(=O)[C@H](Cc1ccccc1)NC(C)=O [Jun9-2-5] (Ac-Phe-Leu-Met-aldehyde)
pIC50 (SARS-CoV-2 M^pro [1]): 6.57

CC(=O)N[C@@H](Cc1ccccc1)C(=O)N[C@@H](CC(C)C)C(=O)N[C@@H](CC[S+](C)[O-])C(=O)C(=O)NC1CC1 (stereo partly drawn) [Jun9-24-4]
pIC50 (SARS-CoV-2 M^pro [1]): 6.54

CC(C)C[C@@H](C=O)NC(=O)[C@H](CC(C)C)NC(=O)[C@H](CC(C)C)NC(=O)OCc1ccccc1 [MG-132 (43), MG-132] (Cbz-Leu-Leu-Leu-aldehyde)
inhibition at 20 µM (SARS-CoV-2 M^pro [1]): > 60%

CCCC[C@@H](C=O)NC(=O)[C@H](CC(C)C)NC(=O)OCc1ccccc1 [Calpeptin (56), Calpeptin]
2019-nCoV 3CL TSA Tm (SARS-CoV-2 M^pro [2]): 56.84 ± 0.00 °C | 2019-nCoV 3CL TSA ΔTm (SARS-CoV-2 M^pro [2]): 1.1 °C

CSCC[C@H](NC(=O)[C@H](CC(C)C)NC(=O)[C@H](CC1CCCCC1)NC(C)=O)C(=O)C(=O)NC1CC1 [Jun9-66-4]
pIC50 (SARS-CoV-2 M^pro [1]): 6.66

CC(C)C[C@H](NC(=O)CNC(=O)OCc1ccccc1)C(=O)N[C@@H](CC[S+](C)[O-])C(=O)C(=O)NC1CC1 (stereo partly drawn) [Jun9-24-1]
pIC50 (SARS-CoV-2 M^pro [1]): 6.29

CC(=O)N[C@@H](Cc1ccccc1)C(=O)N[C@@H](CC(C)C)C(=O)N[C@@H](CCS(C)(=O)=O)C(=O)C(=O)NC1CC1 [Jun9-56-3]
pIC50 (SARS-CoV-2 M^pro [1]): 6.85

CC(=O)N[C@@H](CC(C)C)C(=O)N[C@@H](CC(C)C)C(=O)N[C@@H](CC[S+](C)[O-])C(=O)C(=O)NC1CC1 (stereo partly drawn) [Jun9-59-2]
pIC50 (SARS-CoV-2 M^pro [1]): 6.44

CC(=O)N[C@@H](CC1CCCCC1)C(=O)N[C@@H](CC(C)C)C(=O)N[C@@H](CC[S+](C)[O-])C(=O)C(=O)NC1CC1 (stereo partly drawn) [Jun9-87-4]
pIC50 (SARS-CoV-2 M^pro [1]): 6.57

CSCC[C@@H](C=O)NC(=O)[C@H](CC(C)C)NC(=O)[C@H](CC(C)C)NC(=O)OC(C)(C)C [Jun9-2-4] (Boc-Leu-Leu-Met-aldehyde)
pIC50 (SARS-CoV-2 M^pro [1]): 6.41
